ChEMBL document CHEMBL3352793, “Discovery of pyrrolo-benzo-1,4-diazines as potent Na(v)1.7 sodium channel blockers” (Bioorg Med Chem Lett, 2014)

Tests used:
in vivo = conditions: rat, po, 10 mg/kg
Rattus norvegicus = species on record: Rattus norvegicus; conditions: in vivo, po, 10 mg/kg, 6 h
[1] = AUC (0 to 24 hrs) in rat at 3 mg/kg, iv; type: ADME, organism-based; design: time < 24 hr, dose 3 mg/kg, route intravenous; conditions: plasma
[2] = Terminal half life in rat at 3 mg/kg, iv; type: ADME, organism-based; design: dose 3 mg/kg, route intravenous; conditions: in vivo, read-out: beta t1/2 (converted)
[3] = Volume of distribution at steady state in rat at 3 mg/kg, iv; type: ADME, organism-based; design: dose 3 mg/kg, route intravenous; conditions: in vivo, read-out: Vdss
[4] = AUC (0 to 24 hrs) in rat at 10 mg/kg, po; type: ADME, organism-based; design: time < 24 hr, dose 10 mg/kg, route oral; conditions: plasma
[5] = Tmax in rat at 10 mg/kg, po; type: ADME, organism-based; design: dose 10 mg/kg, route oral; conditions: in vivo
[6] = Cmax in rat at 10 mg/kg, po; type: ADME, organism-based; design: dose 10 mg/kg, route oral; conditions: in vivo
Brain = assay: Drug uptake in rat brain at 10 mg/kg, po; type: ADME, organism-based; design: dose 10 mg/kg, route oral; conditions: in vivo
[7] = Oral bioavailability in rat at 10 mg/kg; type: ADME, organism-based; conditions: in vivo
[8] = Mean residence time in rat at 10 mg/kg, po; type: ADME, organism-based; design: dose 10 mg/kg, route oral; conditions: in vivo
[9] = Clearance in rat at 3 mg/kg, iv; type: ADME, organism-based; design: dose 3 mg/kg, route intravenous; conditions: in vivo
[10] = Mean residence time in rat at 3 mg/kg, iv; type: ADME, organism-based; design: dose 3 mg/kg, route intravenous; conditions: in vivo

Row | Structure (SMILES) | AUC(0-t) at 6 h (in vivo; in vivo) [µM·h] | further results
1 | N#Cc1ccc(C(=O)N2CCC3(CC2)Nc2ccccc2-n2cccc23)cc1 | 1.01 | 
2 | CN(C)c1cccc(C(=O)N2CCC3(CC2)Nc2ccccc2-n2cccc23)c1 | 0.633 | 
3 | Cc1cc(C)cc(C(=O)N2CCC3(CC2)Nc2ccccc2-n2cccc23)c1 |  | AUC (Rattus norvegicus): 0 µM·h
4 | COc1ccc2c(c1)NC1(CCN(C(=O)c3ccc(C#N)cc3)CC1)c1cccn1-2 | 51.1 | 
5 | N#Cc1ccc(C(=O)N2CCC3(CC2)Nc2cc(OC(F)(F)F)ccc2-n2cccc23)cc1 | 11.7 | 
6 | N#Cc1ccc(C(=O)N2CCC3(CC2)Nc2cc(C(F)(F)F)ccc2-n2cccc23)cc1 | 15.2 | 
7 | N#Cc1ccc(C(=O)N2CCC3(CC2)Nc2cc(Cl)ccc2-n2cccc23)cc1 | 2.9 | 
8 | N#Cc1ccc(C(=O)N2CCC3(CC2)Nc2ccc(F)cc2-n2cccc23)cc1 | 12 | 
9 | N#Cc1ccc(C(=O)N2CCC3(CC2)Nc2ccc(Cl)cc2-n2cccc23)cc1 | 26.1 | 
10 | N#Cc1ccc(C(=O)N2CCC3(CC2)Nc2ccc(Br)cc2-n2cccc23)cc1 | 23.4 | 
11 | COc1ccc2c(c1)NC1(CCN(C(=O)c3cccc(C)c3)CC1)c1cccn1-2 |  | AUC (Rattus norvegicus): 0 µM·h
12 | COc1ccc2c(c1)NC1(CCN(C(=O)c3cccc(Cl)c3)CC1)c1cccn1-2 |  | AUC (Rattus norvegicus): 0 µM·h
13 | COc1ccc2c(c1)NC1(CCN(C(=O)c3cccc(C#N)c3)CC1)c1cccn1-2 | 0.783 | 
14 | COc1ccc2c(c1)NC1(CCN(C(=O)OCc3ccccc3)CC1)c1cccn1-2 | 13.1 | 
15 | COc1ccc2c(c1)NC1(CCN(Cc3ccccc3)CC1)c1cccn1-2 | 0.37 | 
16 | COc1ccc2c(c1)NC1(CCN(C(=O)c3ccccc3OC)CC1)c1cccn1-2 |  | AUC (Rattus norvegicus): 0 µM·h
17 | COc1cccc(C(=O)N2CCC3(CC2)Nc2cc(OC)ccc2-n2cccc23)c1 |  | AUC (Rattus norvegicus): 0 µM·h
18 | COc1ccc(C(=O)N2CCC3(CC2)Nc2cc(OC)ccc2-n2cccc23)cc1 | 91.5 | 
19 | COc1ccc2c(c1)NC1(CCN(C(=O)c3ccc(C)cc3)CC1)c1cccn1-2 | 17.2 | 
20 | COc1ccc2c(c1)NC1(CCN(C(=O)c3ccc(Cl)cc3)CC1)c1cccn1-2 | 1.96 | 
21 | COc1ccc2c(c1)NC1(CCN(C(=O)c3ccc(N(C)C)cc3)CC1)c1cccn1-2 | 9.44 | 
22 | COc1ccc2c(c1)NC1(CCN(C(=O)c3ccc(C#N)c(OC)c3)CC1)c1cccn1-2 | 26.6 | 
23 | COc1ccc2c(c1)NC1(CCN(C(=O)c3ccc(N(C)C)c(Cl)c3)CC1)c1cccn1-2 | 1.27 | 
24 | COc1ccc2c(c1)NC1(CCN(C(=O)c3ccc(OC)c(Cl)c3)CC1)c1cccn1-2 | 6.81 | 
25 | COc1ccc2c(c1)NC1(CCN(C(=O)c3ccc(OC)c(N(C)C)c3)CC1)c1cccn1-2 |  | AUC(0-t) at 24 h [1]: 17.4 µM·h; half-life [2]: 2.9 h; Vd [3]: 1.2 L/kg; AUC(0-t) at 24 h [4]: 65.9 µM·h; Tmax [5]: 1.3 h; Cmax [6]: 9.3 µM; Drug uptake (Brain): 257 ng/g; AUC(0-t) at 6 h (in vivo; plasma): 20.3 µM·h; bioavailability [7]: 100%; MRT [8]: 4.7 h; clearance [9]: 6.5 mL/min/kg; MRT [10]: 3 h
26 | COc1ccc2c(c1)NC1(CCN(C(=O)c3cc(C)cc(C)c3)CC1)c1cccn1-2 | 0.788 | 
